{"source": "patent EP0559845B1", "about": "“Use of compounds in preventing endotoxin shock” (priority 1991, dated 1992)", "key": {"[1]": {"system": "GTPase activity in membranes isolated from a macrophage (RAW 264.7) cell line", "test": "GTPase assay: basal or agonist-stimulated GTPase activity in macrophage membranes", "assay_type": "biochemical", "details": "no LPS", "description": "(§1) We sought to directly evaluate the influence of LPS on possible G-protein function by examining agonist-enhanced GTPase activity, which is a hallmark of G-protein action. Moreover, because macrophages are one of the key cell types in the release of toxic mediators following an LPS challenge, we first assessed the capacity of LPS to influence GTPase activity in membranes isolated from RAW 264.7 cells, which is a highly LPS-responsive macrophage cell line. In these studies, GTPase activity was measured using a standard assay. The activity was determined using 2 µM γ-^32P-GTP in the presence of 0.1 mM ATP and 0.2 mM of the non-hydrolyzable ATP analog, AMPPNP, in order to minimize nonspecific nucleotidase activity in the membrane preparations. In the preferred practice of the present invention, the ability of a candidate compound to inhibit LPS-induced GTPase is assessed by measuring the release of ^32Pi from γ-^32P-GTP.\n(§2) We first determined the optimal LPS concentration for GTPase stimulation. In all experiments, the LPS dose response curve was quite steep, and with the highest activity occurring around 200-300 µg LPS/ml.\n(§3) Under these conditions, GTPase activation was evident at 100 µg LPS/ml (roughly 6 µM assuming an average MW ∼ 17,000 kDa), and the maximal effect was seen by 300 µg/ml LPS. (2) To show adenosine mucleotide synergism with LPS-stimulated GTPase activity, either 10µM ATP or 30µM ADP replace the 0.1 mM ATP and 0.2 mM AMPPNP of the standard assay described by Cassel et al. and Neer et al.\nIn the preferred assay, a candidate compound (.001 - 1000 µM) is dissolved or suspended in 100µl of a reaction buffer containing 20mM HEPES (pH 7.4), 0.01mM ATP or ADP, membranes isolated from RAW 264.7 cells, 2µM γ-^32P-GTP (3-9 X 10cpm/pmol), 5mM MgCl2, 18µM LPS (based on an estimated MW of 17,000 kDa for E. coli 0111:B4 endotoxin), and 250 mM ammonium sulfate. The reaction is initiated by the addition of the γ-^32P-GTP and the mixture incubated at 30-37°C for 15 to 30 minutes. The reaction is terminated by the addition of 500µl of 5% trichloroacetic acid and 500µl of 0.1gm/ml acid-activated charcoal in 5% trichloroacetic acid. The samples are centrifuged at 14,000xg for 10 minutes, and a 550µl aliquot of the supernatant is removed for scintillation counting. The supernatant will contain the released ^32Pi. The extent of GTPase inhibition is measured by the decrease in the amount of ^32Pi released from γ-^32P-GTP. Appropriate controls include mixtures with one of the following omitted: (i) test compound, (ii) endotoxin, and (iii) ATP, ADP or AMPPNP.\nThe macrophage-like cell line RAW 264.7 is cultured as described using RPMI 1640 medium supplemented with 10% fetal calf serum (FCS) containing < 0.1 ng/ml LPS. The membranes are resuspended in 20 mM HEPES (pH 7.4), 1 mM dithiothreitol, 1 mM EDTA and 10 µg leupeptin/ml. Aliquots are stored at -70°C until assayed.\n(§4) To assess whether the LPS/ATP-enhanced GTPase is a \"low Km\" form, which would be expected for a variety of large and small MW G-proteins, as well as for various GAP and ARF-like proteins, as opposed to a \"high Km\" form, such as a phosphatase, we assayed the GTPase activity using 0.2 and 50 µM GTP essentially as described previously. […] The LPS and ATP stimulated a low Km GTPase activity by ∼30% and 70%, respectively, when added individually. This stimulation of low Km activity was slightly greater than that estimated using the standard assay conditions. […] The LPS stimulation of GTPase activity is enhanced by adenine nucleotides."}, "C57BL/10 mice": {"system": "C57BL/10 mice", "test": "Toxicity of lipid X in mice", "assay_type": "in vivo", "protocol": "Eight week old mice (strain C57BL/10) were allowed to rest for at least 7 days following their arrival and were sexually segregated and housed at 5 per cage with food and water ad libitum. Intravenous injection of a GTPase inhibiting compound (lipid X dissolved in saline as described above) and/or lipopolysaccharide was achieved by the retroorbital sinus route using a 27 gauge needle. No more than 0.1 ml of fluid was injected at a time. Just prior to injection, the mice were lightly anesthetized with ether. Following the injection, mice were observed every 0.5-6 hours and the time of death was recorded. In a few experiments, mice were injected by the intraperitoneal route with solutions of lipid X and/or lipopolysaccharide similar to those described above.\nTo test for the toxicity of lipid X in mice, C57BL/10 mice were challenged with 750, 2000 or 5000 µg of lipid X intraperitoneally (12 mice) or with 750, 1500 or 3000 µg intravenously (7 mice). […] Consequently, lipid X appeared to be nontoxic in mice, as in sheep."}, "[2]": {"system": "GTPase activity in membranes isolated from a macrophage (RAW 264.7) cell line", "test": "GTPase assay, basal activity and single agonists", "assay_type": "biochemical", "description": "as §1, §2, §3\nBecause the above inhibitor studies indicated a maximum LPS-stimulated GTPase activity in the presence of ATP and ATP analogs, we investigated this interaction by measuring the ATP-dependence of the GTPase activity in macrophage membranes in the presence and absence of an optimal dose of LPS. […] This stimulation by ATP may be due to the action of purinergic receptors, i.e., the adenosine and ATP receptors which are well-characterized to be coupled to various G-proteins.\nas §4"}}, "data": [{"smiles": "CCCCCCCCCCC[C@@H](O)CC(=O)N[C@H]1[C@@H](OP(=O)(O)O)O[C@H](CO)[C@@H](O)[C@@H]1OC(=O)C[C@H](O)CCCCCCCCCCC", "note": "[lipid X]", "values": [{"measurement": "effect on basal GTPase activity", "setting": "[1]", "result": "slightly reducing basal activity"}, {"measurement": "survival after lipid X alone", "setting": "C57BL/10 mice; 750, 1500 or 3000 µg intravenously (7 mice)", "result": "All these mice lived"}, {"measurement": "survival after lipid X alone", "setting": "C57BL/10 mice; 750, 2000 or 5000 µg intraperitoneally (12 mice)", "result": "All these mice lived"}, {"measurement": "effect on basal GTPase activity", "setting": "[2]", "result": "slightly reducing"}]}]}
